US9510581B2, “Bed bug lures” (Rutgers, The State University of New Jersey, priority 2011, dated 2016)

Experiments:
Assay type in all cases: in vivo, Cimex lectularius L.
bed bugs [1] = assay: Screening of chemical lures in four-choice pitfall trap bioassays; settings: for Percent catch of bed bugs in pitfall traps, Mean (%) ± SE: four-choice: three lures and an unbaited control per arena, 50 μl lure, plastic tray arena, 50 bugs, 8 hours; for Trap catch versus corresponding unbaited control: four-choice bioassays, P<0.05
Experimental: Bed bugs were collected from an infested house in Lakewood, N.J. They were maintained in plastic containers (4.7 cm height and 5 cm diameter) with folded paper as harborages at 26° C.±1° C., 40±10% relative humidity, a 12:12 hour (L:D) photoperiod, and were deprived of food for the entire duration of the study. All bioassays were conducted within 3 months after bed bugs were collected.
Pitfall traps were used to evaluate the attractiveness of lures. The pitfall trap was an inverted plastic dog bowl (600 ml volume, 18 cm diameter, 6.4 cm deep and 1 mm thickness) (IKEA, Baltimore, Md., USA) (FIG. 1a). The outer wall of the trap was covered with a layer of paper surgical tape (Caring International, Mundelein, Ill., USA), which was painted black with ColorPlace spray paint (WalMart Stores Inc., Bentonville, USA).
Two types of experimental arenas were used: a) wooden door arenas (200 by 76 cm by 6.4 cm) (length by width by height) with wooden floor, and b) plastic tray arenas (80 by 75 by 5 cm) (length by width by height) with bottom lined with brown paper (FIG. 1b). A layer of fluoropolymer resin (DuPont Polymers, Wilmington, Del., USA) was applied to inner walls of the experimental arenas to prevent the bugs from escaping. A layer of this resin was also applied to inner walls of the pitfall traps in a similar fashion to confine the bed bugs that fell into the traps. A filter paper (15 cm diameter) was placed on the floor in the center of each arena, and then a plastic ring (13.3 cm diameter and 6.4 cm height) was placed on the filter paper for confining the bed bugs. A piece of folded cardboard and folded fabric was placed on the filter paper to provide harborages for bed bugs. Six additional paper harborages measuring 5.1 cm long and 3.3 cm wide were placed along the edges of the floor of each wooden arena. Two wooden door arenas were located at least 6 m away from each other in a 15 m long and 9 m wide room at 23-25° C. Two additional wooden door arenas were located in two 4 m long and 2.3 m wide rooms at 24-25° C. These rooms had normal air current through vents on the ceilings or through the open door. In experiments using plastic tray arenas, four arenas were placed simultaneously in a non-ventilated, closed room measuring 4 m long and 2.3 m wide at 24-25° C. A 12:12 hour (L:D) cycle was maintained in all the rooms that were used for bioassays. […]
Twelve known or potential bed bug chemical lures (Table 1) were evaluated for their attractiveness to bed bugs in plastic tray arenas.

bed bugs [2] = assay: Relative attractiveness of four chemical lures in four-choice bioassays; settings: for Percent of bed bugs captured in baited pitfall traps: four traps per arena, each baited with one of four chemicals, four replicates
Experimental: Four traps in each arena were baited with one of these chemicals. Four arenas were used to obtain four replicates. Percent attraction in multiple comparison experiments involving a control was calculated as: Percent attraction=100×(T−C)/Total, where “T” is the number of bed bugs in the baited pitfall trap and “C” is the number of bed bugs in the non-baited pitfall trap. “Total” is the total number of healthy bugs in each experiment arena at time of recording the bed bug locations. The percent catch is the number of bed bugs found in a pitfall trap divided by number of healthy bed bugs in each arena at the time of recording the results. Positive values indicate attraction to the treatment and negative values indicate repellency; and the values range from −100 (complete repellency) to +100 (complete attraction). For the paired design experiments, mean percent catch were analyzed by paired t-test (P=0.05). Mean percent attractions among the treatments were compared using the non-parametric Kruskal-Wallis tests followed by Tukey's HSD test. The data for Experiment 2.10.1 and 2.10.2 were pooled for analyzing differences among treatments (treatment×day interaction was insignificant from Analysis of Variance test).

bed bugs [3] = assay: Attractiveness of chemical lures in two-choice pitfall trap bioassays; settings: baited versus unbaited trap, Kruskal-Wallis / Tukey's HSD
Experimental: These chemicals were further evaluated to confirm their attractiveness to bed bugs using two-choice assays. The experimental setup and testing procedure were similar to those described above however only two traps were placed at opposite corners of each arena (FIG. 1b). One trap was used as an unbaited control and the other trap received a chemical lure. Each chemical lure was evaluated 8 times over two consecutive days. The baited and non-baited trap positions in each arena were switched on the second day to eliminate any positional effect that could influence the trap catch. Percent attraction in multiple comparison experiments involving a control was calculated as: Percent attraction=100×(T−C)/Total, where “T” is the number of bed bugs in the baited pitfall trap and “C” is the number of bed bugs in the non-baited pitfall trap. “Total” is the total number of healthy bugs in each experiment arena at time of recording the bed bug locations. The percent catch is the number of bed bugs found in a pitfall trap divided by number of healthy bed bugs in each arena at the time of recording the results. Positive values indicate attraction to the treatment and negative values indicate repellency; and the values range from −100 (complete repellency) to +100 (complete attraction). For the paired design experiments, mean percent catch were analyzed by paired t-test (P=0.05). […]

bed bugs [4] = assay: Effect of CO2 release rates on bed bug trap efficacy, door arenas; settings: release rates 200, 300, 400 and 500 ml/min
Experimental: The two traps were placed at opposite ends equidistant (85 cm) from the center. The experiment was tested over 4 consecutive days. On each day, a different CO2 release rate was used in each arena following a Latin square design. The CO2 source was 5 lb cylinders (Airgas East Inc., Piscataway, N.J., USA). The tested release rates were: 200, 300, 400 and 500 ml/min. The rate was determined as ml of water displaced by CO2 per unit of time using a Bubble-O-Meter (Bubble-O-Meter, Dublin, Ohio, USA). The CO2 was introduced into 240 ml plastic cups that were placed on the pitfall traps (FIG. 1c). Two holes were made on the lid of each plastic cup for CO2 to escape. Fifty bed bug nymphs and adult males were released into the center of each arena and confined with a plastic ring. The bugs were acclimated for approximately 15 hours before starting the treatments. At 1 hour after dark cycle, the plastic ring confining the bugs was removed. The numbers of bed bugs trapped in the pitfall traps and those in the arenas were collected and counted after 8 hours. […] The number of dead or moribund bed bugs in each arena was very low (<5%) in all the bioassays. After counting, dead and moribund bugs were replaced with healthy bugs in each arena. All bugs were placed back to the center of the arenas and confined with plastic rings for 15 hours before starting next bioassay.

Compound	Percent catch of bed bugs in pitfall traps, Mean (%) ± SE (bed bugs [1])	Trap catch versus corresponding unbaited control (bed bugs [1])	other results
CC(=O)CCC=C(C)C [6-Methyl-5-Hepten-2-one]	20.9 ± 2.52ab %		
L-carvone	27.5 ± 3.5a %	significantly higher number of bugs than their corresponding controls	
C=CC(O)CCCCC (stereo not drawn) [1-octen-3-ol]	28.3 ± 2.5a^a %	significantly higher number of bugs than their corresponding controls	Percent of bed bugs captured in baited pitfall traps (bed bugs [2]): 17.0±1.8%; Attraction compared among lures (percent attraction) (bed bugs [3]): not significantly different from nonanal
CCCCCCCCC=O [Nonanal]	27.7 ± 3.2a %	significantly higher number of bugs than their corresponding controls	Percent of bed bugs captured in baited pitfall traps (bed bugs [2]): 34.0±4.6%; Attractiveness relative to spearmint oil, 1-octen-3-ol or coriander Egyptian oil (bed bugs [2]; four-choice comparison, P=0.01): approximately 2 fold; Attraction compared among lures (percent attraction) (bed bugs [3]): significantly more attractive than L-lactic acid, and L-carvone
OCc1ccccc1 [Benzyl alcohol]	25.1 ± 3.4ab %		
CC(=O)CC/C=C(/C)CCC=C(C)C [Z-Geranyl Acetone]	13.0 ± 2.4a %		
O=C=O [CO2, carbon dioxide]			Attraction of bed bugs to traps baited with CO2 (bed bugs [4]): very attractive to bed bugs regardless of the CO2 release rates
CC(O)c1ccccc1 (stereo not drawn) [Styralol]	16.4 ± 2.4bc %		
C[C@H](O)C(=O)O [L-lactic acid]	25.7 ± 2.7a %	significantly higher number of bugs than their corresponding controls	
